Experimental data reported in patent publication US20140357688A1, “METHOD FOR INHIBITING EZH2 EXPRESSION IN BREAST CANCER CELLS” (Yung Shin Pharm. Ind. Co., Ltd., priority 2013, published 2014).

Key:
Assay type in all cases: cell-based, human
MDA-MB-468 cells = experiment: Morphological analysis of apoptosis by fluorescent staining (FDA/PI); conditions: 3 μM YC-1, after 6 h-treatment
Description: (A) Cells were treated with indicated concentration of YC-1 for 6, 24, and 48 h. Cell viability was determined by MTT method. (B) MDA-MB-468 cells were treated with 3 μM YC-1 for 0, 6, and 12 h, and then stained with fluorescence diacetate (FDA) and propidium iodide (PI). Cell morphology was assessed by fluorescence microscopy with magnification ×20 (upper 3 rows) or ×40 (lowest row). (C) MDA-MB-468 cells were treated with 3 μM YC-1 for 24 h, cells were lysed and subjected to western blot analysis described in Materials and Methods. β-actin is a loading control. Blots were representative of results from three independent experiments. (D) Cells were treated with vehicle (DMSO, as control) or 3 μM YC-1 for 6 h. The cell cycles were analyzed by flow cytometry. (E) Cells were treated with indicated concentration of YC-1 and then performed with clonogenic assay.
Vital and apoptotic cells were observed under staining with fluorescein diacetate (2 mg/ml) and propidium iodide (4 mg/ml) for 10 min. Cells were visualized and recorded on a LeicaDC300 microscope with digital camera.

ERK = experiment: Western blot of ERK phosphorylation in MDA-MB-468 cells; conditions: 3 μM YC-1; beginning at 2 h, maximal at 6 h
Description: (A) Cells were pretreated with KT5720 (3 μM), KT5823 (3 μM), NS2028 (30 μM), or ODQ (30 μM) and then stimulated with YC-1 (3 μM) for 6 h. Cells were collected for measurement of protein expression (left) or cell viability (middle). After 3 days of PKA knockdown, cells were induced with 3 μM YC-1 for 4 h. Cells were harvested and analyzed using western blotting (right). The levels of protein expression were quantitated and shown under blots. […] Cells were collected and analyzed protein expression (left) and cells viability (middle). p44/42 MAPK knockdown cells were treated with 3 μM YC-1 for 4 h and then detected protein expression (left). (C) Cells were treated with 3 μM YC-1 for indicated time. Cells were harvested for detection of protein phosphorylated activation. […] Six hours later, cells were harvested for EZH2 ubiquitination assay. (E) Cells were induced by 3 μM YC-1 for 6 h in the presence of PD98059 or KT5720. Cells were collected for the determination of ERK phosphorylation. Cells were lysed in PBS containing proteinase inhibitor and phosphatase inhibitors and sonication. Protein concentration was measured using the Bio-Rad protein assay kit (Bio-Rad Laboratories, Hercules, Calif., USA). […] The band intensities were analyzed and quantified by the Multi Gauge software (Fuji Photo Film).

c-Cbl = experiment: Western blot of c-Cbl phosphorylation and expression
Description: (A) c-Cbl knockdown MDA-MB-468 cells were treated with 3 μM YC-1 for 4 h. Cell were harvested for detection of protein expression. (B) Cells were treated with 3 μM YC-1 for indicated time. Cells were collected and c-Cbl phosphorylation was detected. […] (D) Cells were pretreated with MG-132 and followed by 3 μM YC-1 induction for indicated time. Cells were harvested and lysed for immunoprecipitation assay. The association between c-Cbl and EZH2 were determined by western blotting analysis and probed with anti-EZH2 or anti-c-Cbl antibody. Membranes were stripped and reprobed with anti-c-Cbl or anti-EZH2 antibody to check the input. […] Then cells were collected and lysate protein was subjected for the detection of the c-Cbl-EZH2 complexes. Cells were lysed in PBS containing proteinase inhibitor and phosphatase inhibitors and sonication. Protein concentration was measured using the Bio-Rad protein assay kit (Bio-Rad Laboratories, Hercules, Calif., USA). Lysate protein was separated by electrophoresis of SDS-PAGE and transferred to Immobilon P membrane (EMD Millipore). The membranes were incubated with appropriate primary antibodies and horseradish peroxidase-conjugated secondary antibodies (EMD Millipore). The signaling was visualized using Chemiluminescence substrate kit (EMD Millipore) and collected by the Luminesence image analyzer, LAS4000 (Fuji Photo Film Co., Tokyo, Japan). The band intensities were analyzed and quantified by the Multi Gauge software (Fuji Photo Film).

Akt = experiment: Western blot of Akt activation; conditions: 3 μM YC-1
Description: (§1) (A) MDA-MB-468 cells were incubated with 3 μM YC-1 for indicated time. Cells were harvested for the detection of phospho-Akt (Ser473), Akt, and PCNA. (B) Cells were pretreated with LY294002 (LY, 10 μM) for 1 h followed by 3 μM YC-1 induction for 6 h. (C) MDA-MB-468 cells were incubated with 3 μM YC-1 for indicated time. Cells were harvested for the detection of phospho-CDK1 (Thr161), CDK1, phospho-EZH2 ([…]), EZH2, and β-actin expression with western blot analysis. Levels of EZH2 phosphorylation were calculated by phospho-EZH2 normalized by total EZH2. (D) Cells were treated with YC-1 for 6 h in the absence or presence of roscovitine (Rosc, 20 μM). Cells were harvested and analyzed by western blotting for protein expression. (E) CDK1 knockdown of MDA-MB-468 cells were induced with 3 μM YC-1 for 4 h and followed by western blot analysis.
(§2) Cells were lysed in PBS containing proteinase inhibitor and phosphatase inhibitors and sonication. Protein concentration was measured using the Bio-Rad protein assay kit (Bio-Rad Laboratories, Hercules, Calif., USA). Lysate protein was separated by electrophoresis of SDS-PAGE and transferred to Immobilon P membrane (EMD Millipore). […] The band intensities were analyzed and quantified by the Multi Gauge software (Fuji Photo Film).

EZH2 Tyr487 = experiment: Western blot of EZH2 phosphorylation; conditions: 3 μM YC-1
Description: as §1, §2

OCc1ccc(-c2nn(Cc3ccccc3)c3ccccc23)o1 [YC-1, 3-(5′-hydroxymethyl-2′-furyl)-1-benzyl indazole]
morphological changes (apoptosis) (MDA-MB-468 cells): obviously morphological changes with apoptotic characteristics
phosphorylated activation of ERK (ERK): rapid phosphorylated activation
c-Cbl protein expression (c-Cbl; 3 μM YC-1): inhibited
c-Cbl Tyr731 and Tyr774 phosphorylation (c-Cbl; 3 μM YC-1, after 1 h): rapid phosphorylation
Akt activation (Akt): activated
phosphorylation of EZH2 Tyr487 (EZH2 Tyr487): no effect
